Source: patent publication US20250032651A1, “[177LU] LUTETIUM-PSMA I&T COMPOSITION AND DOSIMETRY, KIT, METHOD OF MAKING, AND METHOD OF USING THEREOF” (Curium US LLC, priority 2022, published 2025)
Where “and” joins values, the source holds several entries; their conditions need not be identical. Equal entries are not always repeated.

Experiment: Normal organ dosimetry Cycle 1: SPECT/CT, TIACs, OLINDA 2.2.3 absorbed radiation dose
Assay type: in vivo, human
Conditions: individual patients/doses
Description: This Example presents the biodistribution, dosimetry, and pharmacokinetics (PK) results of a PK/Dosimetry sub-study performed as part of a Phase III trial. Twenty-seven (27) patients were administered a target activity of 7.4±10% GBq of ^177Lu-PSMA-I&T and underwent single photon emission computed tomography (SPECT)/computed tomography (CT) imaging at four timepoints (4 h, 24 h, 48 h, and 168 h). Image data was analysed to compute time-activity curves (TACs) and subsequently time-integrated activity coefficients (TIACs) in each organ of interest and in organs showing appreciable and meaningful ^177Lu-PSMA-I&T activity. Organ Level Internal Dose Assessment (OLINDA 2.2.3) was used to compute organ and whole body absorbed radiation doses for each patient.
All participating sites underwent a rigorous site setup process during which all dose calibrators, scanners, and gamma counters used in the sub-study were calibrated. Sites were allowed to enroll patients in the sub-study only after the completion and approval of all site setup processes by Invicro. Patients underwent SPECT/CT imaging, with anatomical coverage typically extending from the salivary glands to the pelvis, following the administration of a targeted 7.4±10% GBq of ^177Lu-PSMA-I&T at cycle 1. SPECT/CT imaging was performed at four timepoints: 4 h, 24 h, 48 h, and 168 h post-injection. Additionally, a subset of patients imaged at Cycle 1 (16 out of 27), were also imaged at Cycle 3 (Table 2).
The imaging data was analyzed using Invicro's VivoQuant software, a validated software used in a 21 CFR § 11-compliant workflow. The general quantification approach was based on the principles detailed in the Medical Internal Radiation Dose (MIRD) Pamphlet No. 16, No 23, and No 26 as appropriate.
Volume of interest (VOI) (kidneys, bladder, liver, lumbar vertebrae L2-L4, lacrimal glands, salivary glands [parotid and submandibular glands], and whole body) were delineated on each dataset by a trained image analyst. […] Organs were segmented either by drawing the entire contour of the organ, or by placing a sphere in a representative region of the organ and then multiplying by the organ's effective mass (based on patient's height and weight). Segmentation methods for each organ are specified in Table 3 and were consistently applied to each patient.
Clearance of the radiopharmaceutical was derived from a data-appropriate fit of each organ's TAC. Depending on the TAC's shape, the data was fitted with the sum of one, two, or three exponentials, or using a rise and fall model. Fitting was performed with in-house Python software. TIACs were calculated through analytical integration of the curve fit extrapolated to infinity. […] A whole-body TAC was derived from delineating the imaged body. The remainder activity was determined by subtracting the cumulative organ TIACs from the whole body TIAC.
Organ TIACs were input into OLINDA 2.2.3 for the computation of organ and whole-body absorbed doses, using International Commission on Radiological Protection (ICRP)-103 weighing factors. The ICRP-89 derived male phantom was used for dose estimation. Organs and body mass as defined by ICRP-89 were scaled based on height and mass using patient effective mass.^4 The voiding bladder model as implemented in OLINDA was used to determine bladder TIAC, assuming a voiding interval of 4 hours. The human alimentary tract model (HAT model) described in ICRP 100 and implemented in OLINDA was used to compute doses to the small intestine, right colon, left colon and rectum for patients showing clearance through the GI tract. The fraction of injected activity (fIA) cleared via the GI tract was determined by taking the peak fIA in the GI tract over all the imaging timepoints. […] The Red Marrow mass in L2-L4 was assumed to be 6.7% of the total red marrow mass.

SMILES: O=C([O-])CC[C@H](NC(=O)N[C@@H](CCCCNC(=O)CCCCCCC(=O)NCCCC[C@@H](NC(=O)[C@@H](Cc1ccccc1)NC(=O)[C@@H](Cc1ccc(O)c(I)c1)NC(=O)CC[C@H](C(=O)[O-])N1CCN(CC(=O)[O-])CCN(CC(=O)[O-])CCN(CC(=O)[O-])CC1)C(=O)[O-])C(=O)[O-])C(=O)[O-].[177Lu+3].[H+].[H+].[H+].[H+].[H+] [Lu-177 PSMA I&T]
- Kidneys absorbed dose (68.9 µg PSMA I&T content): 0.31 Gy/GBq
- Kidneys absorbed dose (71.6 µg PSMA I&T content): 0.36 Gy/GBq
- Kidneys absorbed dose (72.1 µg PSMA I&T content): 0.32 Gy/GBq and 0.54 Gy/GBq
- Kidneys absorbed dose (76.8 µg PSMA I&T content): 0.23 Gy/GBq
- Kidneys absorbed dose (77.0 µg PSMA I&T content): 0.28 Gy/GBq and 0.56 Gy/GBq
- Kidneys absorbed dose (77.7 µg PSMA I&T content): 0.41 Gy/GBq
- Kidneys absorbed dose (79.0 µg PSMA I&T content): 0.53 Gy/GBq
- Kidneys absorbed dose (79.4 µg PSMA I&T content): 0.81 Gy/GBq
- Kidneys absorbed dose (79.5 µg PSMA I&T content): 0.30 Gy/GBq and 0.38 Gy/GBq
- Kidneys absorbed dose (80.4 µg PSMA I&T content): 0.24 Gy/GBq
- Kidneys absorbed dose (82.0 µg PSMA I&T content): 0.17 Gy/GBq
- Kidneys absorbed dose (82.2 µg PSMA I&T content): 0.34 Gy/GBq
- Kidneys absorbed dose (82.6 µg PSMA I&T content): 0.29 Gy/GBq
- Kidneys absorbed dose (85.3 µg PSMA I&T content): 0.55 Gy/GBq
- Kidneys absorbed dose (89.2 µg PSMA I&T content): 0.43 Gy/GBq
- Kidneys absorbed dose (90.0 µg PSMA I&T content): 0.35 Gy/GBq
- Kidneys absorbed dose (92.6 µg PSMA I&T content): 0.05 Gy/GBq and 0.45 Gy/GBq
- Kidneys absorbed dose (99.2 µg PSMA I&T content): 0.57 Gy/GBq
- Kidneys absorbed dose (105.1 µg PSMA I&T content): 0.48 Gy/GBq
- Kidneys absorbed dose (108.5 µg PSMA I&T content): 0.27 Gy/GBq
- Kidneys absorbed dose (110.6 µg PSMA I&T content): 0.64 Gy/GBq
- Kidneys absorbed dose (119.1 µg PSMA I&T content): 0.28 Gy/GBq
- Lacrimal Glands absorbed dose (72.1 µg PSMA I&T content): 0.19 Gy/GBq and 0.20 Gy/GBq
- Lacrimal Glands absorbed dose (76.8 µg PSMA I&T content): 0.08 Gy/GBq
- Lacrimal Glands absorbed dose (77.0 µg PSMA I&T content): 0.07 Gy/GBq and 0.06 Gy/GBq
- Lacrimal Glands absorbed dose (77.7 µg PSMA I&T content): 0.66 Gy/GBq
- Lacrimal Glands absorbed dose (79.0 µg PSMA I&T content): 0.16 Gy/GBq
- Lacrimal Glands absorbed dose (79.4 µg PSMA I&T content): 0.63 Gy/GBq
- Lacrimal Glands absorbed dose (79.5 µg PSMA I&T content): 0.26 Gy/GBq and 0.47 Gy/GBq
- Lacrimal Glands absorbed dose (80.4 µg PSMA I&T content): 0.08 Gy/GBq
- Lacrimal Glands absorbed dose (82.0 µg PSMA I&T content): 0.07 Gy/GBq
- Lacrimal Glands absorbed dose (82.2 µg PSMA I&T content): 0.54 Gy/GBq
- Lacrimal Glands absorbed dose (89.2 µg PSMA I&T content): 0.38 Gy/GBq
- Lacrimal Glands absorbed dose (90.0 µg PSMA I&T content): 0.09 Gy/GBq
- Lacrimal Glands absorbed dose (92.6 µg PSMA I&T content): 0.05 Gy/GBq and 0.04 Gy/GBq
- Lacrimal Glands absorbed dose (105.1 µg PSMA I&T content): 1.19 Gy/GBq
- Lacrimal Glands absorbed dose (108.5 µg PSMA I&T content): 0.94 Gy/GBq and 1.09 Gy/GBq
- Lacrimal Glands absorbed dose (110.6 µg PSMA I&T content): 0.68 Gy/GBq
- Lacrimal Glands absorbed dose (119.1 µg PSMA I&T content): 0.62 Gy/GBq
- Liver absorbed dose (68.9 µg PSMA I&T content): 0.04 Gy/GBq
- Liver absorbed dose (71.6 µg PSMA I&T content): 0.02 Gy/GBq
- Liver absorbed dose (72.1 µg PSMA I&T content): 0.02 Gy/GBq
- Liver absorbed dose (76.8 µg PSMA I&T content): 0.03 Gy/GBq
- Liver absorbed dose (77.0 µg PSMA I&T content): 0.06 Gy/GBq and 0.02 Gy/GBq
- Liver absorbed dose (77.7 µg PSMA I&T content): 0.04 Gy/GBq
- Liver absorbed dose (79.0 µg PSMA I&T content): 0.03 Gy/GBq
- Liver absorbed dose (79.4 µg PSMA I&T content): 0.03 Gy/GBq
- Liver absorbed dose (79.5 µg PSMA I&T content): 0.03 Gy/GBq and 0.07 Gy/GBq
- Liver absorbed dose (80.4 µg PSMA I&T content): 0.10 Gy/GBq
- Liver absorbed dose (82.0 µg PSMA I&T content): 0.05 Gy/GBq
- Liver absorbed dose (82.2 µg PSMA I&T content): 0.02 Gy/GBq
- Liver absorbed dose (82.6 µg PSMA I&T content): 0.02 Gy/GBq
- Liver absorbed dose (85.3 µg PSMA I&T content): 0.02 Gy/GBq
- Liver absorbed dose (89.2 µg PSMA I&T content): 0.08 Gy/GBq
- Liver absorbed dose (90.0 µg PSMA I&T content): 0.04 Gy/GBq
- Liver absorbed dose (92.6 µg PSMA I&T content): 0.09 Gy/GBq and 0.01 Gy/GBq
- Liver absorbed dose (99.2 µg PSMA I&T content): 0.04 Gy/GBq
- Liver absorbed dose (105.1 µg PSMA I&T content): 0.06 Gy/GBq
- Liver absorbed dose (108.5 µg PSMA I&T content): 0.07 Gy/GBq and 0.05 Gy/GBq
- Liver absorbed dose (110.6 µg PSMA I&T content): 0.03 Gy/GBq
- Liver absorbed dose (119.1 µg PSMA I&T content): 0.02 Gy/GBq
- Salivary Glands absorbed dose (68.9 µg PSMA I&T content): 0.11 Gy/GBq
- Salivary Glands absorbed dose (71.6 µg PSMA I&T content): 0.16 Gy/GBq
- Salivary Glands absorbed dose (72.1 µg PSMA I&T content): 0.06 Gy/GBq and 0.00 Gy/GBq
- Salivary Glands absorbed dose (76.8 µg PSMA I&T content): 0.11 Gy/GBq
- Salivary Glands absorbed dose (77.0 µg PSMA I&T content): 0.19 Gy/GBq and 0.10 Gy/GBq
- Salivary Glands absorbed dose (77.7 µg PSMA I&T content): 0.04 Gy/GBq
- Salivary Glands absorbed dose (79.0 µg PSMA I&T content): 0.15 Gy/GBq
- Salivary Glands absorbed dose (79.4 µg PSMA I&T content): 0.12 Gy/GBq
- Salivary Glands absorbed dose (79.5 µg PSMA I&T content): 0.26 Gy/GBq and 0.19 Gy/GBq
- Salivary Glands absorbed dose (80.4 µg PSMA I&T content): 0.20 Gy/GBq
- Salivary Glands absorbed dose (82.0 µg PSMA I&T content): 0.32 Gy/GBq
- Salivary Glands absorbed dose (82.2 µg PSMA I&T content): 0.03 Gy/GBq
- Salivary Glands absorbed dose (82.6 µg PSMA I&T content): 0.16 Gy/GBq
- Salivary Glands absorbed dose (85.3 µg PSMA I&T content): 0.09 Gy/GBq
- Salivary Glands absorbed dose (89.2 µg PSMA I&T content): 0.39 Gy/GBq
- Salivary Glands absorbed dose (90.0 µg PSMA I&T content): 0.80 Gy/GBq
- Salivary Glands absorbed dose (92.6 µg PSMA I&T content): 0.13 Gy/GBq and 0.14 Gy/GBq
- Salivary Glands absorbed dose (99.2 µg PSMA I&T content): 0.27 Gy/GBq
- Salivary Glands absorbed dose (105.1 µg PSMA I&T content): 0.18 Gy/GBq
- Salivary Glands absorbed dose (108.5 µg PSMA I&T content): 0.29 Gy/GBq and 0.10 Gy/GBq
- Salivary Glands absorbed dose (110.6 µg PSMA I&T content): 0.03 Gy/GBq
- Salivary Glands absorbed dose (119.1 µg PSMA I&T content): 0.28 Gy/GBq
